From patent publication US5210193A, “Piperazine derivatives” (American Cyanamid Company, priority 1990, dated 1993)
≈ marks a conversion by molar mass, not a printed value.

Key:
Klebsiella pneumoniae AD [1] = assay: in vivo antibacterial activity, survival of infected mice (Table II); set-up: species or system Charles River CD-1 mice; details: subcutaneous
Experimental: Charles River CD-1 mice were infected with either Klebsiella pneumoniae AD or Staphylococcus aureus Smith. A single subcutaneous dose of the test compound was administered 1/2 hour after infection. […] The results appear in Tables II and III, wherein the representative test compounds are identified by the number of their hereinafter described examples.

[2] = tested on: Enterobacter aerogenes VGH 84-36; assay: in vitro antibacterial MIC, agar plate dilution; assay type: cell-based; details: Klebsiella aerogenes, VGH8436, 18 hours, 35° C., read-out: MIC
Experimental: (§1) The in vitro antimicrobial spectrum of the compounds of ths invention were determined by the agar plate dilution method with Mueller-Hinton agar and an inoculum of each test organism of approximately 10^4 colony forming units delivered by the Steers replicating device. The minimal inhibitory concentration (MIC) in mcg/ml is defined as the lowest concentration of test compound that inhibited visible growth after 18 hours incubation at 35° C. Results are given in Table I, with the test compounds identified by the number of their hereinafter described examples.

Klebsiella pneumoniae AD [3] = assay: in vitro antibacterial MIC, agar plate dilution; assay type: cell-based; details: Klebsiella pneumoniae, 18 h, 35° C., read-out: MIC
Experimental: as §1

[4] = tested on: Staphylococcus aureus Smith; assay: in vitro antibacterial MIC, agar plate dilution; assay type: cell-based; details: Staphylococcus aureus, 18 h, 35° C., read-out: MIC
Experimental: as §1

[5] = tested on: Proteus rettgeri CMC 84-41; assay: in vitro antibacterial MIC, agar plate dilution; assay type: cell-based; details: Providencia rettgeri, CMC8441, 18 h, 35° C., read-out: MIC
Experimental: as §1

[6] = tested on: Morganella morganii VGH 84-11; assay: in vitro antibacterial MIC, agar plate dilution; assay type: cell-based; details: VGH8411, 18 hours, 35° C., read-out: MIC
Experimental: as §1

[7] = tested on: Klebsiella pneumoniae MOR 84-4; assay: in vitro antibacterial MIC, agar plate dilution; assay type: cell-based; details: Klebsiella pneumoniae, MOR844, 18 h, 35° C., read-out: MIC
Experimental: as §1

[8] = tested on: Pseudomonas aeruginosa VGH 84-4; assay: in vitro antibacterial MIC, agar plate dilution; assay type: cell-based; details: Pseudomonas aeruginosa, VGH844, 18 h, 35° C., read-out: MIC
Experimental: as §1

[9] = tested on: Escherichia coli CMC 84-11; assay: in vitro antibacterial MIC, agar plate dilution; assay type: cell-based; details: Escherichia coli, CMC8411, 18 h, 35° C., read-out: MIC
Experimental: as §1

[10] = tested on: Escherichia coli ATCC 25922; assay: in vitro antibacterial MIC, agar plate dilution; assay type: cell-based; details: Escherichia coli, ATCC25922, 18 h, 35° C., read-out: MIC
Experimental: as §1

[11] = tested on: Enterobacter cloacae VGH 84-37; assay: in vitro antibacterial MIC, agar plate dilution; assay type: cell-based; details: Enterobacter cloacae, VGH8437, 18 h, 35° C., read-out: MIC
Experimental: as §1

[12] = tested on: Staphylococcus aureus ATCC 25913; assay: in vitro antibacterial MIC, agar plate dilution; assay type: cell-based; details: ATCC25913, 18 hours, 35° C.
Experimental: as §1

SMILES | MIC [2] | MIC (Klebsiella pneumoniae AD [3]) | MIC [4] | MIC [5] | MIC [6] | MIC [7] | MIC [8] | MIC [9] | MIC [10] | MIC [11] | MIC [12] | Survival Ratio 7 Days After Infection (Klebsiella pneumoniae AD [1]; 0.25 mg/kg single dose) | Survival Ratio 7 Days After Infection (Klebsiella pneumoniae AD [1]; 0.5 mg/kg single dose) | Survival Ratio 7 Days After Infection (Klebsiella pneumoniae AD [1]; 1 mg/kg single dose) | Survival Ratio 7 Days After Infection (Klebsiella pneumoniae AD [1]; 2 mg/kg single dose) | Survival Ratio 7 Days After Infection (Klebsiella pneumoniae AD [1]; 4 mg/kg single dose) | Survival Ratio 7 Days After Infection (Klebsiella pneumoniae AD [1]; 8 mg/kg single dose) | Survival Ratio 7 Days After Infection (Klebsiella pneumoniae AD [1]; 16 mg/kg single dose)
Clc1ccc2oc(C3CNCCN3)cc2c1 (centres unmarked) [Example 17, 2-(5-Chloro-2-benzofuranyl)piperazine] | – | – | – | – | – | – | – | – | – | – | – | 0/5 | 0/5 | 0/5 | 0/5 | 1/5 | 5/5 | 5/5
CN(C)CC1CNCCN1 (centres unmarked) [Example 1, N,N-Dimethyl-2-piperazinemethanamine] | – | – | – | – | – | – | – | – | – | – | – | 0/5 | – | 0/5 | – | 1/5 | – | 5/5
CCn1cc(C(=O)O)c(=O)c2cc(F)c(N3CCNC(c4cccs4)C3)cc21 (centres unmarked) [Example 26, 1-Ethyl-6-fluoro-1,4-dihydro-4-oxo-7-[3-(2-thienyl)-1-piperazinyl]-3-auinolinecarboxylic acid] | 2 mg/L (≈ 4.98 µM) | 1 mg/L (≈ 2.49 µM) | 0.25 mg/L (≈ 0.623 µM) | 1 mg/L (≈ 2.49 µM) | 0.5 mg/L (≈ 1.25 µM) | 1 mg/L (≈ 2.49 µM) | 16 mg/L (≈ 39.9 µM) | 0.5 mg/L (≈ 1.25 µM) | 1 mg/L (≈ 2.49 µM) | 0.5 mg/L (≈ 1.25 µM) | 0.5 mg/L (≈ 1.25 µM) | – | – | – | – | – | – | –
CCn1cc(C(=O)O)c(=O)c2cc(F)c(N3CCNC(CN(C)C)C3)cc21 (centres unmarked) [Example 2, 7-[3-[(Dimethylamino)methyl]-1-piperazinyl]-1-ethyl-6-fluoro-1,4-dihvdro-4-oxo-3-quinolinecarboxylic acid] | 4 mg/L (≈ 10.6 µM) | 2 mg/L (≈ 5.31 µM) | 0.5 mg/L (≈ 1.33 µM) | 2 mg/L (≈ 5.31 µM) | 2 mg/L (≈ 5.31 µM) | 4 mg/L (≈ 10.6 µM) | 16 mg/L (≈ 42.5 µM) | 2 mg/L (≈ 5.31 µM) | 2 mg/L (≈ 5.31 µM) | 1 mg/L (≈ 2.66 µM) | 2 mg/L (≈ 5.31 µM) | – | – | – | – | – | – | –

Now from value to molecule, other results behind:

MIC [2] | MIC (Klebsiella pneumoniae AD [3]) | MIC [4] | MIC [5] | MIC [6] | MIC [7] | MIC [8] | MIC [9] | MIC [10] | MIC [11] | MIC [12] | SMILES | Survival Ratio 7 Days After Infection (Klebsiella pneumoniae AD [1]; 0.25 mg/kg single dose) | Survival Ratio 7 Days After Infection (Klebsiella pneumoniae AD [1]; 0.5 mg/kg single dose) | Survival Ratio 7 Days After Infection (Klebsiella pneumoniae AD [1]; 1 mg/kg single dose) | Survival Ratio 7 Days After Infection (Klebsiella pneumoniae AD [1]; 2 mg/kg single dose) | Survival Ratio 7 Days After Infection (Klebsiella pneumoniae AD [1]; 4 mg/kg single dose) | Survival Ratio 7 Days After Infection (Klebsiella pneumoniae AD [1]; 8 mg/kg single dose) | Survival Ratio 7 Days After Infection (Klebsiella pneumoniae AD [1]; 16 mg/kg single dose)
0.5 mg/L (≈ 1.2 µM) | 0.5 mg/L (≈ 1.2 µM) | ≤ 0.12 mg/L | 0.5 mg/L (≈ 1.2 µM) | 0.5 mg/L (≈ 1.2 µM) | 0.5 mg/L (≈ 1.2 µM) | 8 mg/L (≈ 19.3 µM) | 0.25 mg/L (≈ 0.602 µM) | 0.5 mg/L (≈ 1.2 µM) | 0.5 mg/L (≈ 1.2 µM) | 0.25 mg/L (≈ 0.602 µM) | CCn1cc(C(=O)O)c(=O)c2cc(F)c(N3CCNC(c4cc(C)cs4)C3)cc21 (centres unmarked) [Example 40, 1-Ethyl-6-fluoro-1,4-dihydro-7-[3-(4-methyl-2-thienyl)-1-piperazinyl]-4-oxo-3-quinolinecarboxylic acid] | – | – | – | – | – | – | –
16 mg/L (≈ 38.5 µM) | 4 mg/L (≈ 9.63 µM) | 0.25 mg/L (≈ 0.602 µM) | 8 mg/L (≈ 19.3 µM) | 8 mg/L (≈ 19.3 µM) | 8 mg/L (≈ 19.3 µM) | 32 mg/L (≈ 77 µM) | 4 mg/L (≈ 9.63 µM) | 4 mg/L (≈ 9.63 µM) | 4 mg/L (≈ 9.63 µM) | 1 mg/L (≈ 2.41 µM) | CCn1cc(C(=O)O)c(=O)c2cc(F)c(N3CCN(C)C(c4cccs4)C3)cc21 (centres unmarked) [Example 31, 1-Ethyl-6-fluoro-1,4-dihydro-7-[4-methyl-3-(2-thienyl)piperazinyl]-4-oxo-3-quinolinecarboxylic acid] | – | – | – | – | – | – | –
4 mg/L (≈ 9.18 µM) | 1 mg/L (≈ 2.29 µM) | 0.25 mg/L (≈ 0.574 µM) | 1 mg/L (≈ 2.29 µM) | 1 mg/L (≈ 2.29 µM) | 2 mg/L (≈ 4.59 µM) | 16 mg/L (≈ 36.7 µM) | 1 mg/L (≈ 2.29 µM) | 1 mg/L (≈ 2.29 µM) | 1 mg/L (≈ 2.29 µM) | 0.25 mg/L (≈ 0.574 µM) | CCn1cc(C(=O)O)c(=O)c2cc(F)c(N3CCNC(c4ccc(Cl)s4)C3)cc21 (centres unmarked) [Example 34, 7-[3-(5-Chloro-2-thienyl)-1-piperazinyl]-1-ethyl-6-fluoro-1,4-dihydro-4-oxo-3-quinolinecarboxylic acid] | – | – | – | – | – | – | –
4 mg/L (≈ 9.31 µM) | 4 mg/L (≈ 9.31 µM) | 0.25 mg/L (≈ 0.582 µM) | 4 mg/L (≈ 9.31 µM) | 8 mg/L (≈ 18.6 µM) | 8 mg/L (≈ 18.6 µM) | > 256 mg/L | 4 mg/L (≈ 9.31 µM) | 4 mg/L (≈ 9.31 µM) | 8 mg/L (≈ 18.6 µM) | 0.25 mg/L (≈ 0.582 µM) | CCn1cc(C(=O)O)c(=O)c2cc(F)c(N3CCN(C)C(c4ccc(C)s4)C3)cc21 (centres unmarked) [Example 38, 1-Ethyl-6-fluoro-1,4-dihydro-7-[4-methyl-3-(5-methyl-2-thienyl)-1-piperazinyl]-4-oxo-3-quinolinecarboxylic acid] | – | – | – | – | – | – | –
